From ChEMBL document CHEMBL4184210, “Optimization of novel monobactams with activity against carbapenem-resistant Enterobacteriaceae - Identification of LYS228” (Bioorg Med Chem Lett, 2018)
≈ marks a conversion by molar mass, not a printed value.

Assays:
[1] = tested on: Escherichia coli; assay: Antimicrobial activity against Escherichia coli expressing beta-lactamase KPC-2 by CLSI broth microdilution method; type: functional
[2] = tested on: Escherichia coli; assay: Antimicrobial activity against Escherichia coli expressing beta-lactamase VEB-1 by CLSI broth microdilution method; type: functional
[3] = tested on: Escherichia coli; assay: Antimicrobial activity against Escherichia coli expressing beta-lactamase NDM-5 by CLSI broth microdilution method; type: functional
[4] = Chemical stability in pH 7.4 potassium phosphate buffer assessed as half life for compound hydrolysis at 37 degC by UPLC and mass spectrometry; type: physicochemical
[5] = target: T1, GABA A receptor alpha-2/beta-2/gamma-2 (Homo sapiens, UniProt P18507+P47869+P47870); assay: Inhibition of recombinant human GABA A alpha2beta2gamma2 receptor expressed in CHO-K1 cells incubated at room temperature for 15 mins before the GABA addition fluorescence spectrometry; type: cell-based
T1 sequence (P47870 whole entry): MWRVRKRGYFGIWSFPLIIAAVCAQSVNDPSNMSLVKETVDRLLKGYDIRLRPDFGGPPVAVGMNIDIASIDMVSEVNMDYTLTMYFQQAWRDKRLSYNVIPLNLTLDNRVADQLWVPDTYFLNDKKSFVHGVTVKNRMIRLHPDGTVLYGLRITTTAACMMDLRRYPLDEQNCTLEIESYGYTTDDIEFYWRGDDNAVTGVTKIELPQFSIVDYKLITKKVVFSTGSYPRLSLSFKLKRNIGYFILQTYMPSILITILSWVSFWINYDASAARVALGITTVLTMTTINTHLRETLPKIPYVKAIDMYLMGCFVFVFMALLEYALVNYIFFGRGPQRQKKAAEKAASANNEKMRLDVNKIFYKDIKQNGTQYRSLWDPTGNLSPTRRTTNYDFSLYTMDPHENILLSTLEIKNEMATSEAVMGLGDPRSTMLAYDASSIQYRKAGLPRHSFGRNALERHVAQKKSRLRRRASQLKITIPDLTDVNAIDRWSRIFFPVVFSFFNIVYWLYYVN
T1 sequence (P18507 whole entry): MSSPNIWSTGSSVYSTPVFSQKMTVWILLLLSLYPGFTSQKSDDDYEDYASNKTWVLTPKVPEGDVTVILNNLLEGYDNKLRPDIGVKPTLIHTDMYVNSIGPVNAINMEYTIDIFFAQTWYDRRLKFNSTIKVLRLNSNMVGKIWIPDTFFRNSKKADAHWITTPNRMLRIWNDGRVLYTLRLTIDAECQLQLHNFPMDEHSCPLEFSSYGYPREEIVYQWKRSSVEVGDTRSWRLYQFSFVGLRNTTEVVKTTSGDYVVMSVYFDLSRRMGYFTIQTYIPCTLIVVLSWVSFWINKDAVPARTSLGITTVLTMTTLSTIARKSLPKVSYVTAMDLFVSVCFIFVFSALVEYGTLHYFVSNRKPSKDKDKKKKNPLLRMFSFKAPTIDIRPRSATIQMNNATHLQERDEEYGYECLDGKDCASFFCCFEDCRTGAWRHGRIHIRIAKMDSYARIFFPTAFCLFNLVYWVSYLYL
T1 sequence (P47869 whole entry): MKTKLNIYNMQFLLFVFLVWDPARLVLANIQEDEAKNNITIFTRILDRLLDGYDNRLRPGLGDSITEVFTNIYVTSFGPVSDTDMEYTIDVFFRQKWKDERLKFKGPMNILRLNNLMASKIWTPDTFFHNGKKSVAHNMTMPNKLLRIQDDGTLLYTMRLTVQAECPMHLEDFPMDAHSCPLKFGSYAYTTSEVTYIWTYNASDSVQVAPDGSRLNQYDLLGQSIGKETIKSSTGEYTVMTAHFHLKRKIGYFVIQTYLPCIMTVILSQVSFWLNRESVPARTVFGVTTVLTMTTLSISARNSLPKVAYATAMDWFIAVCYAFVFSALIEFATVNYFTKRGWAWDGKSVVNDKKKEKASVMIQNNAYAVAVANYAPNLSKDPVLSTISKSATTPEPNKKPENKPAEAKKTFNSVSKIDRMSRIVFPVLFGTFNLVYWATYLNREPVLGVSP

[6] = tested on: Escherichia coli; assay: microbe, parasite or virus in culture
Description: Antimicrobial activity against Escherichia coli expressing beta-lactamase CTXM-3 by CLSI broth microdilution method

[7] = tested on: Escherichia coli; assay: microbe, parasite or virus in culture; remark: listed apart in the source
Description: Antimicrobial activity against Escherichia coli expressing beta-lactamase CTXM-15 by CLSI broth microdilution method

[8] = tested on: Escherichia coli; assay: microbe, parasite or virus in culture; remark: listed apart in the source
Description: Antimicrobial activity against Escherichia coli expressing beta-lactamase KPC-4 by CLSI broth microdilution method

[9] = tested on: Escherichia coli; assay: microbe, parasite or virus in culture; remark: listed apart in the source
Description: Antimicrobial activity against Escherichia coli expressing beta-lactamase KPC-8 by CLSI broth microdilution method

[10] = tested on: Escherichia coli; assay: microbe, parasite or virus in culture; remark: listed apart in the source
Description: Antimicrobial activity against Escherichia coli expressing beta-lactamase PER-1 by CLSI broth microdilution method

[11] = tested on: Escherichia coli; assay: microbe, parasite or virus in culture; remark: listed apart in the source
Description: Antimicrobial activity against Escherichia coli expressing beta-lactamase PER-2 by CLSI broth microdilution method

[12] = tested on: Escherichia coli; assay: microbe, parasite or virus in culture; remark: listed apart in the source
Description: Antimicrobial activity against Escherichia coli expressing beta-lactamase PER-4 by CLSI broth microdilution method

[13] = tested on: Escherichia coli; assay: microbe, parasite or virus in culture; remark: listed apart in the source
Description: Antimicrobial activity against Escherichia coli expressing beta-lactamase SHV-12 by CLSI broth microdilution method

[14] = tested on: Escherichia coli; assay: microbe, parasite or virus in culture; remark: listed apart in the source
Description: Antimicrobial activity against Escherichia coli expressing beta-lactamase SME-1 by CLSI broth microdilution method

[15] = tested on: Escherichia coli; assay: microbe, parasite or virus in culture; remark: listed apart in the source
Description: Antimicrobial activity against Escherichia coli expressing beta-lactamase VEB-4 by CLSI broth microdilution method

[16] = tested on: Escherichia coli; assay: microbe, parasite or virus in culture; remark: listed apart in the source
Description: Antimicrobial activity against Escherichia coli expressing beta-lactamase TEM-10 by CLSI broth microdilution method

[17] = tested on: Escherichia coli; assay: microbe, parasite or virus in culture; remark: listed apart in the source
Description: Antimicrobial activity against Escherichia coli expressing beta-lactamase TEM-16 by CLSI broth microdilution method

[18] = tested on: Escherichia coli; assay: microbe, parasite or virus in culture; remark: listed apart in the source
Description: Antimicrobial activity against Escherichia coli expressing beta-lactamase TEM-47 by CLSI broth microdilution method

[19] = tested on: Escherichia coli; assay: microbe, parasite or virus in culture; remark: listed apart in the source
Description: Antimicrobial activity against Escherichia coli expressing beta-lactamase GIM-1 by CLSI broth microdilution method

[20] = tested on: Escherichia coli; assay: microbe, parasite or virus in culture; remark: listed apart in the source
Description: Antimicrobial activity against Escherichia coli expressing beta-lactamase SPM-1 by CLSI broth microdilution method

[21] = tested on: Escherichia coli; assay: microbe, parasite or virus in culture; remark: listed apart in the source
Description: Antimicrobial activity against Escherichia coli expressing beta-lactamase VIM-1 by CLSI broth microdilution method

[22] = tested on: Escherichia coli; assay: microbe, parasite or virus in culture; remark: listed apart in the source
Description: Antimicrobial activity against Escherichia coli expressing beta-lactamase AmpC by CLSI broth microdilution method

[23] = tested on: Escherichia coli; assay: microbe, parasite or virus in culture; remark: listed apart in the source
Description: Antimicrobial activity against Escherichia coli expressing beta-lactamase DHA by CLSI broth microdilution method

[24] = tested on: Escherichia coli; assay: microbe, parasite or virus in culture; remark: listed apart in the source
Description: Antimicrobial activity against Escherichia coli expressing beta-lactamase CMY-2 by CLSI broth microdilution method

[25] = tested on: Escherichia coli; assay: microbe, parasite or virus in culture; remark: listed apart in the source
Description: Antimicrobial activity against Escherichia coli expressing beta-lactamase Oxa-10 by CLSI broth microdilution method

[26] = tested on: Escherichia coli; assay: microbe, parasite or virus in culture; remark: listed apart in the source
Description: Antimicrobial activity against Escherichia coli expressing beta-lactamase Oxa-18 by CLSI broth microdilution method

[27] = tested on: Escherichia coli; assay: microbe, parasite or virus in culture; remark: listed apart in the source
Description: Antimicrobial activity against Escherichia coli expressing beta-lactamase Oxa-23 by CLSI broth microdilution method

[28] = tested on: Escherichia coli; assay: microbe, parasite or virus in culture; remark: listed apart in the source
Description: Antimicrobial activity against Escherichia coli expressing beta-lactamase Oxa-40 by CLSI broth microdilution method

[29] = tested on: Escherichia coli; assay: microbe, parasite or virus in culture; remark: listed apart in the source
Description: Antimicrobial activity against Escherichia coli expressing beta-lactamase Oxa-160 by CLSI broth microdilution method

[30] = tested on: Pseudomonas aeruginosa; assay: Antimicrobial activity against Pseudomonas aeruginosa expressing delta-mexB/delta-mexXY/delta-mexCD and delta-ampC mutant by CLSI broth microdilution method; type: functional
[31] = tested on: Pseudomonas aeruginosa; assay: Antimicrobial activity against Pseudomonas aeruginosa expressing delta-mexB/mexXY/delta-ampDh2/ delta-ampD by CLSI broth microdilution method; type: functional

N=C(N)NCc1cn(C[C@@H]2[C@H](NC(=O)/C(=N\OC3(C(=O)O)CC3)c3csc(N)n3)C(=O)N2S(=O)(=O)O)nn1 (stereo in doubt)
MIC [1]: 0.125 µg/mL (≈ 0.219 µM) | MIC [2]: 16 µg/mL (≈ 28 µM) | MIC [3]: 0.25 µg/mL (≈ 0.437 µM) | half-life [4]: 3.71 days | IC50 [5]: 890 µM | MIC [6]: 0.25 µg/mL (≈ 0.437 µM) | MIC [7]: 0.125 µg/mL (≈ 0.219 µM) | MIC [8]: 2 µg/mL (≈ 3.5 µM) | MIC [9]: 1 µg/mL (≈ 1.75 µM) | MIC [10]: 32 µg/mL (≈ 56 µM) | MIC [11]: > 64 µg/mL | MIC [12]: 8 µg/mL (≈ 14 µM) | MIC [13]: 0.5 µg/mL (≈ 0.875 µM) | MIC [14]: 0.06 µg/mL (≈ 0.105 µM) | MIC [15]: 8 µg/mL (≈ 14 µM) | MIC [16]: 0.5 µg/mL (≈ 0.875 µM) | MIC [17]: 0.25 µg/mL (≈ 0.437 µM) | MIC [18]: 0.25 µg/mL (≈ 0.437 µM) | MIC [19]: 0.03 µg/mL (≈ 0.0525 µM) | MIC [20]: 0.125 µg/mL (≈ 0.219 µM) | MIC [21]: 0.125 µg/mL (≈ 0.219 µM) | MIC [22]: 0.125 µg/mL (≈ 0.219 µM) | MIC [23]: 4 µg/mL (≈ 7 µM) | MIC [24]: 0.25 µg/mL (≈ 0.437 µM) | MIC [25]: 0.25 µg/mL (≈ 0.437 µM) | MIC [26]: 1 µg/mL (≈ 1.75 µM) | MIC [27]: 0.25 µg/mL (≈ 0.437 µM) | MIC [28]: 0.125 µg/mL (≈ 0.219 µM) | MIC [29]: 0.25 µg/mL (≈ 0.437 µM)

N=C(N)NCc1cnn(C[C@@H]2[C@H](NC(=O)/C(=N\OC3(C(=O)O)CC3)c3csc(N)n3)C(=O)N2S(=O)(=O)O)n1 (stereo in doubt)
MIC [1]: 0.125 µg/mL (≈ 0.219 µM) | MIC [2]: 16 µg/mL (≈ 28 µM) | MIC [3]: 0.25 µg/mL (≈ 0.437 µM) | half-life [4]: 20.2 days | MIC [30]: 0.25 µg/mL (≈ 0.437 µM) | MIC [31]: 32 µg/mL (≈ 56 µM) | IC50 [5]: 190 µM | MIC [6]: 0.25 µg/mL (≈ 0.437 µM) | MIC [7]: 0.125 µg/mL (≈ 0.219 µM) | MIC [8]: 4 µg/mL (≈ 7 µM) | MIC [9]: 1 µg/mL (≈ 1.75 µM) | MIC [10]: 64 µg/mL (≈ 112 µM) | MIC [11]: > 64 µg/mL | MIC [12]: 4 µg/mL (≈ 7 µM) | MIC [13]: 0.25 µg/mL (≈ 0.437 µM) | MIC [14]: 0.06 µg/mL (≈ 0.105 µM) | MIC [15]: 16 µg/mL (≈ 28 µM) | MIC [16]: 1 µg/mL (≈ 1.75 µM) | MIC [17]: 0.5 µg/mL (≈ 0.875 µM) | MIC [18]: 0.125 µg/mL (≈ 0.219 µM) | MIC [19]: 0.125 µg/mL (≈ 0.219 µM) | MIC [20]: 0.06 µg/mL (≈ 0.105 µM) | MIC [21]: 0.06 µg/mL (≈ 0.105 µM) | MIC [22]: 0.5 µg/mL (≈ 0.875 µM) | MIC [23]: 8 µg/mL (≈ 14 µM) | MIC [24]: 0.5 µg/mL (≈ 0.875 µM) | MIC [25]: 0.25 µg/mL (≈ 0.437 µM) | MIC [26]: 0.5 µg/mL (≈ 0.875 µM) | MIC [27]: 0.25 µg/mL (≈ 0.437 µM) | MIC [28]: 0.125 µg/mL (≈ 0.219 µM) | MIC [29]: 0.125 µg/mL (≈ 0.219 µM)
